Measured values reported in patent US5521200A, “2-oxo-pyrrolo[1,2-A]benzimidazole-3-carboxyl derivatives useful in treating central nervous system disorders” (priority 1994, dated 1996).

Assays:
[1] = molecular target: benzodiazepine site of the GABA-A receptor; experiment: Benzodiazepine Receptor Binding Assay (inhibition of 3H-flunitrazepam binding); conditions: ca. 3 nM 3H-flunitrazepam, 10-20 min at 25° C., membranes; over 10,000 = not active
[2] = test system: adult male rat (conflict behavior suppressed by punishment); experiment: Suppression of anxiety in the adult male rat (Conflict, Vogel); type: in vivo; conditions: ip, minimum effective dose, greater than 10 = active dose not determined, read-out: Conflict MED
Excerpt: The experiment was run the next day.

[3] = test system: metrazol-induced convulsions in mice; experiment: Suppression of Metrazol-Induced Convulsions; type: in vivo, mouse (male CD1 mice); conditions: Mus musculus, ip, sc metrazol CD90, block of clonic convulsions, greater than 30 = active dose not determined

SMILES	IC50 [1]	minimal effective dose [2]	ED50 [3]
O=C1CN2C(=C1C(=O)Nc1ccncc1)Nc1ccccc12 [CP #1, N-(4-Pyridyl)-1,2-dihydro-4H-pyrrolo[1,2-a]benzimidazole-3-carboxamide-2(1H)-one]	7.22 µM	> 10 mg/kg	> 10 mg/kg
CN(C)c1ccc(NC(=O)C2=C3Nc4ccccc4N3CC2=O)cc1 [CP #2, N-(4-Dimethylaminophenyl)-1,2-dihydro-2-oxo-4H-pyrrolo[1,2-a]benzimidazole-3-carboxamide]	1.74 µM	> 10 mg/kg	> 30 mg/kg
CCN1C2=C(C(=O)Nc3c(F)cccc3F)C(=O)CN2c2ccccc21 [CP #7, N-(2,6-Difluorophenyl)-1,2-dihydro-4-ethyl-4H-pyrrolo[1,2-a]benzimidazole-3-carboxamide-2(1H)-one]	> 10 µM	> 10 mg/kg	> 10 mg/kg
O=C1CN2C(=C1C(=O)Nc1ccc(F)cc1F)Nc1ccccc12 [CP #8, N-(2,4-Difluorophenyl)-1,2-dihydro-2-oxo-4H-pyrrolo[1,2-a]benzimidazole-3-carboxamide]	> 10 µM	> 10 mg/kg	

The next lines start with results.

IC50 [1]	SMILES	minimal effective dose [2]	ED50 [3]
> 10 µM	O=C1CN2C(=C1C(=O)Nc1cc(F)ccc1F)Nc1ccccc12 [CP #3, N-(2,5-Difluorophenyl)-1,2-dihydro-2-oxo-4H-pyrrolo[1,2-a]benzimidazole-3-carboxamide]	> 10 mg/kg	
0.0801 µM	O=C1CN2C(=C1C(=O)Nc1c(F)cccc1F)Nc1ccccc12 [CP #5, N-(2,6-Difluorophenyl)-1,2-dihydro-2-oxo-4H-pyrrolo[1,2-a]benzimidazole-3-carboxamide]	< 10 mg/kg	6 mg/kg
> 10 µM	CN1C2=C(C(=O)Nc3c(F)cccc3F)C(=O)C(C)(C)N2c2ccccc21 [CP #6, N-(2,6-Difluorophenyl)-1,2-dihydro-1,1,4-trimethyl-4H-pyrrolo[1,2-a]benzimidazole-3-carbozamide-2(1H) one]	> 10 mg/kg	1 to 10 mg/kg
